Results as given in US5475014A, “Oxazolidone derivative” (Eisai Co., Ltd., priority 1991, dated 1995).
Counter-ions that a name gives are not always drawn.

How the values were obtained:
MAO-A = biological target: T1, MAO-A (Rattus norvegicus, UniProt P21396); experiment: MAO-A inhibition activity with rat forebrain (14C-5-HT substrate); assay type: biochemical, rat (male Wistar); conditions: for inhibition at 0.1 µM / Inhibiting activity MAO-A (% at 10^-7 M): 10^-7 M; for inhibition at 0.1 µM: read-out: Inhibiting activity MAO-A (% at 10^-7 M); for IC50: 5-HT 200 μM, read-out: Inhibiting activity MAO-A, IC50
T1 construct: suspension of 1 part by volume of the forebrains of male Wistar rats; from tissue; host or cells: forebrain of male Wistar rats, suspension in potassium phosphate buffer
T1 sequence (P21396 1-526): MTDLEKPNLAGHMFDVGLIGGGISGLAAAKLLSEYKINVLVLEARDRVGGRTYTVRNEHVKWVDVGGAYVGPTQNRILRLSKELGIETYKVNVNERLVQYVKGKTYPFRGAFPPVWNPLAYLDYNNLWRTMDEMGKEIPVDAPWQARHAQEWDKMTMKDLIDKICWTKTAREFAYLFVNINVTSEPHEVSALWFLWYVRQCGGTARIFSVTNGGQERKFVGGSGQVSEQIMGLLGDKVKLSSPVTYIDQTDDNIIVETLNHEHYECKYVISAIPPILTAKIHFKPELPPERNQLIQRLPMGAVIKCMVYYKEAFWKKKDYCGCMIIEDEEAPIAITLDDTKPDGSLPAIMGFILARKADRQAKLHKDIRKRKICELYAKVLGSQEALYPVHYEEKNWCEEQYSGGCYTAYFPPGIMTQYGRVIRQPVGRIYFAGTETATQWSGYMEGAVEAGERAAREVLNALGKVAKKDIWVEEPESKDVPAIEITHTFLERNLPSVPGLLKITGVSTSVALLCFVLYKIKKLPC
Experimental: (§1) Determination of MAO inhibition activity with the use of rat forebrain:
(§2) The MAO inhibition activity was determined by a method of Prada et al. (J. Pharmacol. Exp. Ther., 248, 400-414 (1989)).
(§3) The enzyme reaction was conducted in 300 μl of a solution having the following composition:
(§4) ^14 C-labelled enzyme substrate
(§5) The enzyme source used was a suspension of 1 part by volume of the forebrains of male Wistar rats in 5 parts by volume of a 0.1M potassium phosphate buffer (pH 7.4). The enzyme source was mixed with the test compound and the mixture was prewarmed at 37° C. for 10 min. Then the enzyme substrate was added thereto to initiate the enzyme reaction. After 10 min, 200 μl of 2N hydrochloric acid was added to terminate the reaction.
(§6) As the substrates for MAO-A and MAO-B, 5-HT (serotonin) and PEA (β-phenethylamine) each labelled with ^14 C were used, respectively. The specific radioactivities of 5-HT and PEA were regulated to 11.1 MBq/mmol and 29.6 MBq/mmol, respectively, and the concentrations of them were 200 μM and 20 μM, respectively, in the reaction.
(§7) The test compound was dissolved in distilled water so that an intended concentration could be obtained in the enzyme reaction. When the test compound was insoluble in water, it was dissolved in dimethyl sulfoxide to obtain a 10% solution.
(§8) Diethyl ether and n-heptane were used as […], respectively. After the termination of the enzyme reaction, 3 ml of the solvent was added to the reaction mixture and shaken for 10 min. After centrifugation at 3,000 rpm for about 10 min, the lower aqueous layer was frozen in dry ice/acetone. The upper organic layer was recovered by decantation and the radioactivity thereof was determined with a liquid scintillation counter.
(§9) The inhibiting activities of the test compounds against MAO A and MAO B are given at the concentrations of 10^-7 M and 10^-6 M or by IC50 values.

MAO-B = biological target: T2, MAO-B (Rattus norvegicus, UniProt P19643); experiment: MAO-B inhibition activity with rat forebrain (14C-PEA substrate); assay type: biochemical, rat (male Wistar); conditions: for inhibition at 1 µM / Inhibiting activity MAO-B (% at 10^-6 M): 10^-6 M; for inhibition at 1 µM: read-out: Inhibiting activity MAO-B (% at 10^-6 M); for IC50: PEA 20 μM, read-out: Inhibiting activity MAO-B, IC50
T2 construct: suspension of 1 part by volume of the forebrains of male Wistar rats; from tissue; host or cells: forebrain of male Wistar rats, suspension in potassium phosphate buffer
T2 sequence (P19643 1-520): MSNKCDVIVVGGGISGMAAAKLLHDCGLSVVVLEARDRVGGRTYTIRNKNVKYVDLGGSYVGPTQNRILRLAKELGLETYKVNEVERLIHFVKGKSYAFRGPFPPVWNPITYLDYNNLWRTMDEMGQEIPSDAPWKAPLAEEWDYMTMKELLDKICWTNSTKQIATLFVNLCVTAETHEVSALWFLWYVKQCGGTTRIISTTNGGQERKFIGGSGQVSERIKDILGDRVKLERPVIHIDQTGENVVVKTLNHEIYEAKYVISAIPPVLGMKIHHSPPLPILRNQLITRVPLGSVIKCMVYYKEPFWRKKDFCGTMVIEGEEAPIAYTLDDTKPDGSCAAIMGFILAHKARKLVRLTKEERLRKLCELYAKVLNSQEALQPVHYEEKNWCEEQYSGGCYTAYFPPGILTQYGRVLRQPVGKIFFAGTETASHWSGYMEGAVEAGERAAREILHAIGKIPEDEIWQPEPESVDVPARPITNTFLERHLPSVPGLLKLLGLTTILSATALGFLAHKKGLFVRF
Experimental: as §1, §2, §3, §4, §5, §6, §7, §8, §9

Compound | inhibition at 0.1 µM (MAO-A) [%] | inhibition at 1 µM (MAO-B) [%] | also measured
N#CC1CCN(c2nc3ccc(N4CC(CO)OC4=O)cc3s2)CC1 (stereo not drawn) [Example 42] | 63 | 5 | 
N#CCCCCc1nc2ccc(N3C[C@H](CO)OC3=O)cc2s1 [Example 24] |  |  | IC50 (MAO-A): 0.137 µM; IC50 (MAO-B): > 100 µM
COCC1CN(c2ccc3nc(N(CCC#N)CCC#N)sc3c2)C(=O)O1 (stereo not drawn) [Example 43] |  | 14 | inhibition at 1 µM (MAO-A; 10^-6 M, read-out: Inhibiting activity MAO-A (at 10^-6 M)): 87%
COCC1CN(c2ccc3sc(C(O)CCC#N)nc3c2)C(=O)O1 (stereo not drawn) [Example 46] | 7 | 3 | 
COCC1CN(c2ccc3nc(C(N)CCC#N)sc3c2)C(=O)O1 (stereo not drawn) [Example 41] | 9 | 3 | 
COCC1CN(c2ccc3nc(/C=C/CCC#N)sc3c2)C(=O)O1 (stereo not drawn) [Example 21] | 10 | 8 | 
COCC1CN(c2ccc3nc(N(C)CCC#N)sc3c2)C(=O)O1 (stereo not drawn) [Example 28] |  |  | IC50 (MAO-A): 0.031 µM; IC50 (MAO-B): 990 µM
CN(CCC#N)c1nc2ccc(N3CC(CO)OC3=O)cc2s1 (stereo not drawn) [Example 29] |  |  | IC50 (MAO-A): 0.019 µM; IC50 (MAO-B): 2240 µM
COC[C@H]1CN(c2ccc3nc(N4CCC(C#N)CC4)sc3c2)C(=O)O1 [Example 13, (R)-3-[2-(4-Cyanopiperidino)benzothiazol-6-yl]-5-methoxymethy]-2-oxazolidinone hydrochloride] |  |  | IC50 (MAO-A): 0.29 µM; IC50 (MAO-B): 598 µM
COCC1CN(c2ccc3nc(C(=O)CCC#N)sc3c2)C(=O)O1 (stereo not drawn) [Example 31] | 54 | 12 | 
COCC1CN(c2ccc3sc(C)nc3c2)C(=O)O1 (stereo not drawn) [Example 44] | 6 | 4 | 
COCC1CN(c2ccc3sc(CCCC#N)nc3c2)C(=O)O1 (stereo not drawn) [Example 47] | 52 | 9 | 
COCC1CN(c2ccc3nc(C(CCC#N)=NOC)sc3c2)C(=O)O1 (stereo not drawn) [Example 39] | 15 | 2 | 
COCC1CN(c2ccc3nc(CCC#N)sc3c2)C(=O)O1 (stereo not drawn) [Example 15] |  |  | IC50 (MAO-A): 0.256 µM; IC50 (MAO-B): 487 µM
COCC1CN(c2ccc3nc(C4CCC(=O)O4)sc3c2)C(=O)O1 (stereo not drawn) [Example 34] |  |  | Inhibiting activity MAO-A (% at 10^-7 M) (MAO-A): 11%; Inhibiting activity MAO-B (% at 10^-6 M) (MAO-B): 8%
COC[C@H]1CN(c2ccc3nc(CCCCC#N)sc3c2)C(=O)O1 [Example 23] |  |  | IC50 (MAO-A): 0.028 µM; IC50 (MAO-B): > 100 µM
COCC1CN(c2ccc3nc(NCCC#N)sc3c2)C(=O)O1 (stereo not drawn) [Example 32] | 23 | 7 | 
COCC1CN(c2ccc3nc(C(O)CC=NO)sc3c2)C(=O)O1 (stereo not drawn) [Example 8, 3-[2-(1-Hydroxy-3-hydroxyiminopropyl)benzothiazol-6-yl]-5-methoxymethyl-2-oxazolidinone] | 80 | 13 | 
COCC1CN(c2ccc3nc(CO)sc3c2)C(=O)O1 (stereo not drawn) [Example 2, 3-(2-Hydroxymethylbenzothiazol-6-yl)-5-methoxymethyl-2-oxazolidinone] | 64 | 11 | 
COCC1CN(c2ccc3nc(CCCCC#N)sc3c2)C(=O)O1 (stereo not drawn) [Example 20] | 15 | 14 | 
COCC1CN(c2ccc3nc(C(O)CCC#N)sc3c2)C(=O)O1 (stereo not drawn) [Example 27] |  |  | IC50 (MAO-A): 0.0067 µM; Inhibiting activity MAO-B (% at 10^-6 M) (MAO-B): 10%
N#CCCCc1nc2ccc(N3C[C@H](CO)OC3=O)cc2s1 [Example 18] |  |  | IC50 (MAO-A): 0.021 µM; IC50 (MAO-B): 930 µM
COCC1CN(c2ccc3nc(C(O)CCC#N)sc3c2)C(=O)O1 (stereo not drawn) [Example 35] | 27 |  | Inhibiting activity MAO-B (% at 10^-6 M) (MAO-B): 0%
N#CCCNc1nc2ccc(N3CC(CO)OC3=O)cc2s1 (stereo not drawn) [Example 33] | 5 | 10 | 
COCC1CN(c2ccc3nc(C(C)(O)CCC#N)sc3c2)C(=O)O1 (stereo not drawn) [Example 36] |  | 1 | IC50 (MAO-A): 0.0068 µM
COCC1CN(c2ccc3nc(CCCC#N)sc3c2)C(=O)O1 (stereo not drawn) [Example 14] |  |  | IC50 (MAO-A): 0.014 µM; IC50 (MAO-B): 579 µM
COCC1CN(c2ccc3nc(C4CCC(=O)O4)sc3c2)C(=O)O1 (stereo not drawn) [Example 5, 3-[2-(5-Oxotetrahydrofuran-2-yl)benzothiazol-6-ul]-5methoxymethyl-2-oxazolidinone] |  | 11 | Inhibiting activity MAO-A (% at 10^-7 M) (MAO-A): 78%
CC(C)(CCC#N)c1nc2ccc(N3C[C@H](CO)OC3=O)cc2s1 [Example 26] | 73 | 7 | 

The next lines start with results.

inhibition at 0.1 µM (MAO-A) [%] | inhibition at 1 µM (MAO-B) [%] | Compound | also measured
93 | 15 | COCC1CN(c2ccc3nc(COC(=O)c4ccccc4)sc3c2)C(=O)O1 (stereo not drawn) [Example 1, 3-(2-Benzoyloxymethylbenzothiazol-6-yl)-5-methoxymethyl-2-oxazolidinone] | 
8 | 6 | COCC1CN(c2ccc3nc(C(CCC#N)N4CCCC4)sc3c2)C(=O)O1 (stereo not drawn) [Example 40] | 
75 | 7 | COC[C@@H]1CN(c2ccc3nc(CCCCC#N)sc3c2)C(=O)O1 [Example 22] | 
73 | 7 | COC[C@H]1CN(c2ccc3nc(C(C)(C)CCC#N)sc3c2)C(=O)O1 [Example 25] | 
87 | 13 | COC[C@H]1CN(c2ccc3nc([C@@H](O)CCC#N)sc3c2)C(=O)O1 [Example 9, 3-[2-(1(S)-Hydroxy-3-cyanopropyl)benzothiazol-6-yl]-5(R)-methoxymethyl-2-oxazolidinone] | 
32 | 11 | COCC1CN(c2ccc3nc(C(CCC#N)=NO)sc3c2)C(=O)O1 (stereo not drawn) [Example 38] | 
 | 11 | COCC1CN(c2ccc3nc(COCC#N)sc3c2)C(=O)O1 (stereo not drawn) [Example 3] | IC50 (MAO-A): 0.005 µM
42 | 15 | COCC1CN(c2ccc3nc(C(O)CCCO)sc3c2)C(=O)O1 (stereo not drawn) [Example 30] | 
71 | 17 | COC[C@H]1CN(c2ccc3nc(CCCC#N)sc3c2)C(=O)O1 [Example 16] | 
61 | 16 | N#CCCCc1nc2ccc(N3C[C@@H](CO)OC3=O)cc2s1 [Example 19] | 
40 | 10 | COCC1CN(c2ccc3sc(NC(=O)CC#N)nc3c2)C(=O)O1 (stereo not drawn) [Example 45] | 
 | 13 | COCC1CN(c2ccc3nc(CNCC#N)sc3c2)C(=O)O1 (stereo not drawn) [Example 4, 3-[(2-Cyanomethylaminomethylbenzothiazol)-6-yl]-5-methoxymethyl-2-oxazolidinone] | IC50 (MAO-A): 0.039 µM
24 | 10 | COC[C@H]1CN(c2ccc3nc(C4CCC(O)O4)sc3c2)C(=O)O1 (stereo partly drawn) [Example 7] | 
24 | 9 | COC[C@@H]1CN(c2ccc3nc(CCCC#N)sc3c2)C(=O)O1 [Example 17] | 
